Where “and” joins values, the source holds several entries; their conditions need not be identical. Equal values may be shown once. Entries after “also recorded” stand apart in the source; their conditions may differ.
Experiments:
purified pig kidney NKA = target: T1, purified pig kidney NKA (Sus scrofa, UniProt P05024); assay: Na/K-ATPase (ATPase) activity assay; assay type: biochemical
T1 construct: Na/K-ATPase activity assay of MB5 with purified pig kidney enzyme; from tissue; host or cells: pig kidney
Experimental: It is appreciated that ouabain induces Src/ERK activation (increased protein phosphorylation) of LLC-PK1 cells by binding to α1 NKA and thereby initiates a signaling cascade which results in the endocytosis of the α1 NKA to terminate the signaling.
ATPase activity assay. ATPase activity assay was performed as previously described.
As archetypal agonists of NKA receptor function, ouabain and other CTS stimulate cellular signaling by activating α1 NKA/Src signalosome complex, which results in its endocytosis. It was reasoned that compounds that inhibit CTS induced signaling could function as inverse agonists of this signalosome complex and prevent α1 NKA endocytosis. A group of hydroxyxanthones were thus tested that were identified as a new class of Na/K-ATPase ligands using a high throughput in vitro screening platform and a library of 2600 structurally diverse chemicals.

[1] = target: T2, α1 NKA/Src receptor complex (Sus scrofa, UniProt P05024); assay: ouabain-induced Src/ERK activation in LLC-PK1 cells (immunostaining, Western blot); assay type: cell-based, pig
T2 construct: endogenous in cells; host or cells: LLC-PK1
Experimental: Western blot, Immunoprecipitation and Immunostaining. Cells were grown to 100% confluency and Western blot were performed as described before. Images were quantified with ImageJ software from NIH. Immunoprecipitation studies were performed as described before. α1 NKA immunostaining was performed by growing cells on sterilized coverslips in 6 well tissue culture plates and permeabilization/fixation with ice-cold methanol followed by blocking with 5% horse serum and 0.1% Triton X-100 in 1× Phosphate buffered saline (PBS) for 30 minutes. Coverslips were then stained with an anti-α1 NKA antibody (Millipore, Cat #05-369) at 1:100 dilution in 1% BSA (Bovine Serum Albumin) containing 1×PBS solution for overnight. Next day after three washes, coverslips were stained with Alexa Fluor 488 conjugated anti-mouse secondary antibody (Thermo-Fisher) for 1 hour, washed extensively and then imaged using a fluorescent microscope with GFP filter or confocal microscope (LEICA-DMIRE2). E-cadherin and occludin immunostaining was performed in a similar manner. Phospho-Src, phospho ERK1/2 immunostaining were performed as described before and images were taken with a LEICA DMIRE2 confocal microscope.
Characterization of MB5 activity on the NKA receptor function known as the NKA/Src binary receptor mechanism was conducted in a pig kidney epithelial cells (LLC-PK1)-based platform using immunostaining and Western blot analyses. […] The change of NKA conformation that occurs upon binding of agonists such as ouabain, results in the release and activation of the Src kinase domain from the “Naktide” site of NKA CD3, while the other interaction (constitutive) persists between NKA CD2 and the SH2 domain of Src. […] In LLC-PK1-derived cells with low NKA receptor constitutive activity due to substantial reduction (over 80%) of α1 NKA expression by siRNA (PY17 cells), increased basal Src and ERK activity is observed due to the abnormally high amount of Src kinase that remains in an active conformation. […]

[2] = tested on: clone 2 spheroids (DU145 derived); assay: 3D culture spheroid invasion assay, subclone 2; assay type: cell-based, human
Experimental: (§1) 3D culture-spheroid invasion assay. Cells were trypsinized gently (0.05% Trypsin-EDTA) and diluted at 1000 cells in 20 μl of full serum media for DU145 and C4-2 derived sub-clones or 500 cells in 20 ul for PC3 cells and allowed to form spheroids using hanging drop technique for 3 days, as described previously. Generated spheroids were then embedded into 3D matrix (not yet solidified at the time of experiment), as described in the previous section, on top of a 1% solidified agarose coating in 48 well plates. Spheroids were monitored from day 1 to different time points and images were taken using a phase contrast microscope fitted with camera, at same settings. Spheroid growth or invasion area was quantified using ImageJ software from NIH. The following formulas were used for quantitation of spheroids:
Spheroid invasion=(Invasion area/Spheroid area)*100
(§2) Spheroid growth=(Spheroid area at Day 3 or 7-Spheroid area at 16 hours)/Spheroid area at 16 hours
(§3) For drug treatment, compound was diluted into media, from stock solution. For MMP secretion, conditioned media for 3 days were collected from top of matrix and assessed for MMP secretion by Western blot using Matrix Remodeling Antibody Sampler kit from Cell Signaling Technology (Cat #73959).

[3] = tested on: subclone 5 spheroids (DU145 derived); assay: 3D culture spheroid growth, subclone 5; assay type: cell-based, human; details: subclone 5 spheroids in 3D culture
Experimental: as §1, §2, §3

subclone 2 spheroids = assay: MMP secretion by spheroids (Western blot of conditioned media); assay type: cell-based, human
Experimental: as §3

[4] = tested on: DU145 or α1 knockdown cells (KD) xenograft; assay: tumor xenograft of DU145 or α1 KD cells in NOD/SCID mice; assay type: in vivo, mouse
Experimental: Mice studies. Animal protocols were approved by an Institutional Animal Care and Use Committee (IACUC) according to NIH guidelines. Tumor xenografts were established by subcutaneous injection of 5×10^6 cancer cells into the left and right flanks of 10-week-old male NOD/SCID mice (Charles River). Tumor length (L) and width (W) were measured with calipers weekly and tumor volume was estimated as V=(L×W^2)/2. After the tumor volumes reached approximately 100 mm^3, mice were sacrificed and tumors were harvested. Half of the tumors were used for protein extraction and the other half were digested with collagenase I solution (SIGMA) to isolate cancer cells.
For MB5 treatment, after tumor volume reached approximately 100 mm^3, mice were injected peritoneally with DMSO or MB5 at 20 mg/kg or 10 mg/kg daily and further monitored for tumor growth weekly. At the end of treatment period (about 2-3 weeks), tumors were harvested and tumor lysates were analyzed for protein expression by Western blot.
The therapeutic potential of MB5 in a tumor xenograft model was first tested by injecting DU145 or corresponding α1 knockdown cells (KD) into the right or left flank of 10-week-old NOD/SCID mice. The tumor growth was monitored twice weekly. Once the tumors reached a volume of approximately 100 mm^3, the animals received daily injections of MB5 at 20 mg/kg intraperitoneally for 3.5 weeks. […] Next, it was determined whether MB5 could decrease tumor growth of highly aggressive subclones derived from DU145. […] FIG. 26E summarizes the effect of MB5 treatment on all types of xenografted tumor growth from DU145 and derivative cell lines.

[5] = pharmacokinetic (PK) and toxicity study in a mouse model; assay type: in vivo

With O=c1c2cccc(O)c2oc2c(O)c(O)ccc12 [MB5] the “inhibition of NKA activity” value (purified pig kidney NKA; about 1 nM to 100 nM) was about 25%, the “high affinity component, share of Na/K-ATPase activity” value (purified pig kidney NKA; biphasic NKA inhibition curve) was 20% and the IC50 (purified pig kidney NKA; purified pig kidney enzyme, low affinity component of biphasic curve) was ~10 µM and 10 µM. For the same molecule, the “inhibition of NKA activity” value (purified pig kidney NKA; ~10 μM) was about 50%, the “ERK activation / NKA receptor function by the compound alone” value ([1]; baseline) was “did not activate NKA receptor function under baseline condition; also recorded: did not activate ERK” and the “inhibition of ouabain-induced ERK (and Src) activation” value ([1]; pretreatment before ouabain) was “abolished ouabain-induced ERK activation; also recorded: better efficacy to inhibit ouabain-induced ERK activation than MB7; also recorded: dose-dependently inhibited Src and ERK activation; also recorded: significantly decreased ouabain-induced ERK signal”. The spheroid invasion ([2]; clone 2 spheroids, 3D culture) was “abolished the invasion; also recorded: suppressed spheroid invasion by subclone 2 cells in a dose-dependent manner; also recorded: significantly reduced invasion of clone 2 spheroids in a dose-dependent manner”, the spheroid size ([2]; subclone 2 spheroids, 72 hours) was “significantly reduced spheroid size” and the spheroid size [3] was “significantly reduced the size of subclone 5 spheroids”. The “MMP2 and 9 secretion” value (subclone 2 spheroids) was “significantly reduced MMP2 and 9 secretions”, the “reduction of tumor growth” value ([4]; 20 mg/kg daily intraperitoneally for 3.5 weeks, DU145 and KD groups) was “about 70%” and the bodyweight ([4]; 20 mg/kg, NOD/SCID mice) was “without significantly affecting bodyweight”. For the same molecule, the tumor growth ([4]; 20 mg/kg/day, DU145 or KD cells) was “reduces tumor growth”, the tumor growth ([4]; all tested cell lines xenografted into NOD/SCID mice) was “significantly reduced tumor growth from all tested cell lines” and the “systemic exposure level versus dose” value ([5]; 50-200 mg/kg after oral administration) was “proportional to dose level”. For the same molecule, the toxic effects ([5]; after more than 1 month of administration) was “No detectable toxic effects”, the “removal by secondary metabolism” value ([5]; most likely by UGT enzymes) was “quickly removed by secondary metabolism” and the toxicity ([5]; mouse, in vivo) was “quite non-toxic”.

From US20230130102A1, “Na/K-ATPase LIGANDS AND USE THEREOF FOR TREATMENT OF CANCER” (Marshall University Research Corporation, priority 2019, published 2023)
